Experimental data reported in ChEMBL document CHEMBL1201862, “PubChem BioAssay data set” (2004).
Structures can show the parent of a compound that is named as a salt.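 Interpolation was linear, between the two tested concentrations surrounding the appropriate level; five concentrations were tested over 48 hours in 96-well plates. GI50 = concentration required for 50% inhibition of growth.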 Active and inactive are the calls of the source. Rule as the data show it: active = GI50 up to about 1.1 µM and inactive = higher.

Key:
Test in all cases: NCI-60 cell line screen, 48 h
CCRF-CEM = test system: CCRF-CEM
M14 = test system: M14
SK-OV-3 = test system: SK-OV-3
HT-29 = test system: HT-29
SW-620 = test system: SW-620
SF-539 = test system: SF-539
SK-MEL-2 = test system: SK-MEL-2
XF498 = test system: XF498
HL-60 = test system: HL-60
SNB-75 = test system: SNB-75
M19-MEL = test system: M19-MEL
HOP-92 = test system: HOP-92
IGROV-1 = test system: IGROV-1
LXFL 529 = test system: LXFL 529
SNB-78 = test system: SNB-78
SK-MEL-28 = test system: SK-MEL-28
LOX IMVI = test system: LOX IMVI
A498 = test system: A498
SK-MEL-5 = test system: SK-MEL-5
DMS-273 = test system: DMS-273
KM12 = test system: KM12
OVCAR-5 = test system: OVCAR-5
OVCAR-8 = test system: OVCAR-8
TK-10 = test system: TK-10
Malme-3M = test system: Malme-3M
SNB-19 = test system: SNB-19
KM-20L2 = test system: KM-20L2
K562 = test system: K562
NCI-H23 = test system: NCI-H23
786-0 = test system: 786-0
SF-268 = test system: SF-268
DMS-114 = test system: DMS-114
UACC-62 = test system: UACC-62
NCI-H460 = test system: NCI-H460
HCC 2998 = test system: HCC 2998
NCI/ADR-RES = test system: NCI/ADR-RES
DLD-1 = test system: DLD-1
UACC-257 = test system: UACC-257
COLO 205 = test system: COLO 205
UO-31 = test system: UO-31
HOP-62 = test system: HOP-62
OVCAR-3 = test system: OVCAR-3
OVCAR-4 = test system: OVCAR-4
RPMI-8226 = test system: RPMI-8226
NCI-H522 = test system: NCI-H522
A549 = test system: A549
U-251 = test system: U-251
MOLT-4 = test system: MOLT-4
SN12C = test system: SN12C
HCT-116 = test system: HCT-116
EKVX = test system: EKVX
MCF7 = test system: MCF7
SF-295 = test system: SF-295
RXF 393 = test system: RXF 393
NCI-H226 = test system: NCI-H226
HOP-18 = test system: HOP-18
HCT-15 = test system: HCT-15

Measured: GI50

COc1ccc2cc3[n+](cc2c1OC)CCc1cc2c(cc1-3)OCO2 [BERBERINE SULFATE]
inactive: CCRF-CEM 10.5 µM | M14 32.5 µM | SK-OV-3 > 80.9 µM | HT-29 32.6 µM | SW-620 30.1 µM | SF-539 33.8 µM | SK-MEL-2 15.5 µM | XF498 14 µM | HL-60 14 µM | SNB-75 27.5 µM | M19-MEL 7.6 µM | HOP-92 23.6 µM | IGROV-1 36 µM | LXFL 529 4.37 µM | SNB-78 34.4 µM | SK-MEL-28 19.3 µM | LOX IMVI 43.1 µM | A498 > 100 µM | SK-MEL-5 5.07 µM | DMS-273 17.2 µM | KM12 4.88 µM | OVCAR-5 > 91.8 µM | OVCAR-8 18.1 µM | TK-10 > 100 µM | Malme-3M 9.62 µM | SNB-19 8.13 µM | KM-20L2 30.8 µM | K562 14.1 µM | NCI-H23 8.34 µM | 786-0 51.5 µM | SF-268 6.15 µM | DMS-114 4.33 µM | UACC-62 17.8 µM | NCI-H460 17.9 µM

NC1(C(=O)O)CCc2ccc(N(CCCl)CCCl)cc2C1 (stereo unspecified)
> 100 µM: HCT-15
inactive: CCRF-CEM 5.32 µM | HCC 2998 > 100 µM | NCI/ADR-RES > 100 µM | DLD-1 > 100 µM | SK-OV-3 > 100 µM | UACC-257 > 100 µM | HT-29 > 100 µM | SW-620 > 100 µM | SF-539 34.5 µM | COLO 205 > 100 µM | SK-MEL-2 38.7 µM | XF498 43.1 µM | UO-31 > 100 µM | HL-60 9.82 µM | SNB-75 98.2 µM | M19-MEL 85.5 µM | HOP-92 > 100 µM | HOP-62 22.4 µM | OVCAR-3 > 100 µM | OVCAR-4 > 100 µM | IGROV-1 > 100 µM | RPMI-8226 84.3 µM | SK-MEL-28 > 100 µM | LOX IMVI 39.7 µM | A498 > 100 µM | SK-MEL-5 57.3 µM | NCI-H522 26.7 µM | DMS-273 38.8 µM | A549 61.7 µM | KM12 > 100 µM | U-251 23.8 µM | MOLT-4 4.74 µM | OVCAR-5 39.9 µM | OVCAR-8 > 100 µM | SN12C 49.3 µM | SNB-19 > 100 µM | KM-20L2 > 100 µM | K562 > 100 µM | EKVX > 100 µM | NCI-H23 > 100 µM | MCF7 33.8 µM | SF-295 29.6 µM | RXF 393 > 100 µM | SF-268 24.3 µM | DMS-114 45.9 µM | NCI-H226 > 100 µM | UACC-62 22.5 µM | HOP-18 > 100 µM | NCI-H460 10.2 µM
active: Malme-3M 1 µM | HCT-116 0.01 µM
